In ChEMBL document CHEMBL5365543, “Benzamidine Conjugation Converts Expelled Potential Active Agents into Antifungals against Drug-Resistant Fungi” (J Med Chem, 2023):
In brackets after ≈: the same amount, converted by molar mass. Activity calls are given as the source filed them. No cut-off for these calls is given here.

Tests used:
Candida albicans [1] = test: Antifungal activity against clinical isolate fluconazole-resistant Candida albicans G5 harbouring MRR1 mutation overexpressing MdrL assessed as inhibition of fungal growth measured after 24 hrs by CLSI based microtiter plate analysis; format: functional
[Candida] auris [2] = Inhibition of biofilm formation in clinical isolate fluconazole-resistant Candida auris CBS12774 measured after 24 hrs by alamar blue staining based colorimetric analysis; format: functional, organism-based; settings: Candidozyma auris, dose 4-32 µg/ml
Candida albicans [3] = test: Antifungal activity against fluconazole-resistant clinical isolate Candida albicans Gu5 assessed as decrease in viable count measured after 24 hrs by colony-counting based time-killing kinetics assay; format: functional, organism-based; settings: dose 2-4 µg/ml
[4] = Selectivity ratio of IC50 for cytotoxicity against human HBE cells to MIC80 for antifungal activity against clinical isolate fluconazole-resistant Candida auris CBS12776; format: toxicity, cell-based
Candida albicans [5] = test: Antifungal activity against clinical isolate fluconazole-resistant Candida albicans Gu5 infected in BALB/c mouse assessed as reduction in renal neutrophil infiltration at 6 mg/kg, ip administered on day 1 and day 3 post fungal infection measured after 7 days by periodic acid-schiff/hematoxylin and eosin staining based microscopic analysis; format: functional, organism-based; settings: time 7.0 day
Candida albicans [6] = test: Antifungal activity against clinical isolate fluconazole-resistant Candida albicans CA632 assessed as inhibition of fungal growth measured after 24 hrs by CLSI based microtiter plate analysis; format: functional
[Candida] auris [7] = Antifungal activity against clinical isolate fluconazole-resistant Candida auris CBS12774 assessed as decrease in viable count at 2 to 4 microg/ml by colony-counting based time-killing kinetics assay; format: functional, organism-based; settings: Candidozyma auris, dose 2-4 µg/ml, time 24.0 hrs, TDE = time-dependent effect
[8] = Selectivity ratio of IC50 for cytotoxicity against human HBE cells to MIC80 for antifungal activity against clinical isolate Candida albicans YEM13 overexpressing efflux pump MdrL; format: toxicity, cell-based
[9] = Drug accumulation in wild-type Candida albicans SC5314 at 50 microg/ml incubated for 3 hrs by HPLC analysis; format: ADME; settings: dose 50 µg/ml
[10] = Selectivity ratio of IC50 for cytotoxicity against human HBE cells to MIC80 for antifungal activity against clinical isolate Candida albicans SCMRRIR34MPG2A harbouring MRR1 mutation overexpressing efflux pump MdrL; format: toxicity, cell-based
[Candida] auris [11] = Inhibition of biofilm formation in clinical isolate fluconazole-resistant Candida auris CBS12774 at 2 microg/ml measured after 24 hrs by alamar blue staining based colorimetric analysis; format: functional, organism-based; settings: Candidozyma auris, dose 2.0 µg/ml

C=C1C(=O)[C@@]2(C)CC[C@@H]3[C@@]1(CC[C@H]1[C@@]3(C)CCC[C@@]1(C)C(=O)OCCCOc1ccc(C(=N)N)cc1)C2
MIC80 (Candida albicans [1]): 1 µg/mL (≈ 1.97 µM)
inhibition ([Candida] auris [2]): Dose-Dependent Effect
Activity (Candida albicans [3]): Dose-Dependent Effect
selectivity ratio [4]: 8
Activity (Candida albicans [5]): Active
MIC80 (Candida albicans [6]): 1 µg/mL (≈ 1.97 µM)
Activity ([Candida] auris [7]): Tde
selectivity ratio [8]: 8
Drug uptake [9]: Active
selectivity ratio [10]: 8
inhibition ([Candida] auris [11]): Active
